Data reported in ChEMBL document CHEMBL4266002, “Acyloxybenzyl and Alkoxyalkyl Prodrugs of a Fosmidomycin Surrogate as Antimalarial and Antitubercular Agents” (ACS Med Chem Lett, 2018).

Test system: Plasmodium falciparum
Assay: Antiplasmodial activity against chloroquine-resistant Plasmodium falciparum K1 infected in human erythrocytes measured after 72 hrs Malstat/NBT reagent based assay
Format: functional, organism-based
Settings: K1, 72 h

Structure (SMILES)	IC50
CN(O)C(=O)CCCP(=O)(OCOC(=O)C(C)(C)C)OCOC(=O)C(C)(C)C	0.73 µM
CCCCCCCCCCCCOCCCOP(=O)(O)CCCC(=O)N(C)O	0.82 µM
CCCCCCCCCCCCCCCCOCCCOP(=O)(CCCC(=O)N(C)O)OCCCOCCCCCCCCCCCCCCCC	42 µM
CCCCOCCCOP(=O)(O)CCCC(=O)N(C)O	16 µM
CC(C)OC(=O)OCOP(=O)(CCCC(=O)N(C)O)OCOC(=O)OC(C)C	0.08 µM
CN(O)C(=O)CCCP(=O)(OCc1ccc(OC(=O)c2ccccc2)cc1)OCc1ccc(OC(=O)c2ccccc2)cc1	0.03 µM
CCCCCCCCCCCCCCCCOCCCOP(=O)(O)CCCC(=O)N(C)O	0.95 µM
CC(C)C(=O)Oc1ccc(COP(=O)(CCCC(=O)N(C)O)OCc2ccc(OC(=O)C(C)C)cc2)cc1	0.14 µM
CCCCCCCCOCCCOP(=O)(O)CCCC(=O)N(C)O	1.9 µM
CC(=O)Oc1ccc(COP(=O)(CCCC(=O)N(C)O)OCc2ccc(OC(C)=O)cc2)cc1	0.49 µM
CN(O)C(=O)CCCP(=O)(OCc1ccc(OC(=O)C(C)(C)C)cc1)OCc1ccc(OC(=O)C(C)(C)C)cc1	0.16 µM
CCCCCCCCC(=O)Oc1ccc(COP(=O)(CCCC(=O)N(C)O)OCc2ccc(OC(=O)CCCCCCCC)cc2)cc1	0.3 µM

Test system: Mycobacterium tuberculosis
Assay: Antimicrobial activity against Mycobacterium tuberculosis H37Ra ATCC 25177 after 7 days by luminometric method
Format: functional, organism-based
Settings: H37Ra ATCC 25177, 168 h

Structure (SMILES)	IC50
CN(O)C(=O)CCCP(=O)(OCOC(=O)C(C)(C)C)OCOC(=O)C(C)(C)C	44.3 µM
CN(O)C(=O)CCCP(=O)(O)O	> 64 µM
CCCCCCCCCCCCOCCCOP(=O)(O)CCCC(=O)N(C)O	> 64 µM
CCCCCCCCCCCCCCCCOCCCOP(=O)(CCCC(=O)N(C)O)OCCCOCCCCCCCCCCCCCCCC	> 64 µM
CCCCOCCCOP(=O)(O)CCCC(=O)N(C)O	> 64 µM
CC(C)OC(=O)OCOP(=O)(CCCC(=O)N(C)O)OCOC(=O)OC(C)C	> 64 µM
CN(O)C(=O)CCCP(=O)(OCc1ccc(OC(=O)c2ccccc2)cc1)OCc1ccc(OC(=O)c2ccccc2)cc1	0.42 µM
CCCCCCCCCCCCCCCCOCCCOP(=O)(O)CCCC(=O)N(C)O	> 64 µM
CC(C)C(=O)Oc1ccc(COP(=O)(CCCC(=O)N(C)O)OCc2ccc(OC(=O)C(C)C)cc2)cc1	0.64 µM
CCCCCCCCOCCCOP(=O)(O)CCCC(=O)N(C)O	> 64 µM
CC(=O)Oc1ccc(COP(=O)(CCCC(=O)N(C)O)OCc2ccc(OC(C)=O)cc2)cc1	19.7 µM
CN(O)C(=O)CCCP(=O)(OCc1ccc(OC(=O)C(C)(C)C)cc1)OCc1ccc(OC(=O)C(C)(C)C)cc1	0.43 µM
CCCCCCCCC(=O)Oc1ccc(COP(=O)(CCCC(=O)N(C)O)OCc2ccc(OC(=O)CCCCCCCC)cc2)cc1	1.76 µM
O=CN(O)CCCP(=O)([O-])O.[Na+] [FOSMIDOMYCIN SODIUM]	> 64 µM
CC(=O)N(O)CCCP(=O)(O)O [FR-900098]	> 64 µM

Test system: MRC5
Assay: Cytotoxicity against human MRC5 cells after 24 hrs by resazurin assay
Format: cell-based
Settings: MRC5, 24 h

Structure (SMILES)	IC50
CN(O)C(=O)CCCP(=O)(OCOC(=O)C(C)(C)C)OCOC(=O)C(C)(C)C	> 64 µM
CCCCCCCCCCCCOCCCOP(=O)(O)CCCC(=O)N(C)O	55.9 µM
CCCCCCCCCCCCCCCCOCCCOP(=O)(CCCC(=O)N(C)O)OCCCOCCCCCCCCCCCCCCCC	> 64 µM
CCCCOCCCOP(=O)(O)CCCC(=O)N(C)O	> 64 µM
CC(C)OC(=O)OCOP(=O)(CCCC(=O)N(C)O)OCOC(=O)OC(C)C	55.7 µM
CN(O)C(=O)CCCP(=O)(OCc1ccc(OC(=O)c2ccccc2)cc1)OCc1ccc(OC(=O)c2ccccc2)cc1	0.61 µM
CCCCCCCCCCCCCCCCOCCCOP(=O)(O)CCCC(=O)N(C)O	24.5 µM
CC(C)C(=O)Oc1ccc(COP(=O)(CCCC(=O)N(C)O)OCc2ccc(OC(=O)C(C)C)cc2)cc1	0.99 µM
CCCCCCCCOCCCOP(=O)(O)CCCC(=O)N(C)O	> 64 µM
CC(=O)Oc1ccc(COP(=O)(CCCC(=O)N(C)O)OCc2ccc(OC(C)=O)cc2)cc1	15.5 µM
CN(O)C(=O)CCCP(=O)(OCc1ccc(OC(=O)C(C)(C)C)cc1)OCc1ccc(OC(=O)C(C)(C)C)cc1	0.98 µM
CCCCCCCCC(=O)Oc1ccc(COP(=O)(CCCC(=O)N(C)O)OCc2ccc(OC(=O)CCCCCCCC)cc2)cc1	12.6 µM
O=CN(O)CCCP(=O)([O-])O.[Na+] [FOSMIDOMYCIN SODIUM]	> 64 µM

Test system: not listed separately
Assay: Selectivity index, ratio of IC50 for human MRC5 cells to IC50 for chloroquine-resistant Plasmodium falciparum K1 infected in human erythrocytes
Format: toxicity, cell-based
Settings: read-out: Ratio IC50

Structure (SMILES)	selectivity ratio
CN(O)C(=O)CCCP(=O)(OCOC(=O)C(C)(C)C)OCOC(=O)C(C)(C)C	> 88
CCCCCCCCCCCCOCCCOP(=O)(O)CCCC(=O)N(C)O	68
CCCCCCCCCCCCCCCCOCCCOP(=O)(CCCC(=O)N(C)O)OCCCOCCCCCCCCCCCCCCCC	> 1.5
CCCCOCCCOP(=O)(O)CCCC(=O)N(C)O	> 4
CC(C)OC(=O)OCOP(=O)(CCCC(=O)N(C)O)OCOC(=O)OC(C)C	743
CN(O)C(=O)CCCP(=O)(OCc1ccc(OC(=O)c2ccccc2)cc1)OCc1ccc(OC(=O)c2ccccc2)cc1	20
CCCCCCCCCCCCCCCCOCCCOP(=O)(O)CCCC(=O)N(C)O	26
CC(C)C(=O)Oc1ccc(COP(=O)(CCCC(=O)N(C)O)OCc2ccc(OC(=O)C(C)C)cc2)cc1	7.3
CCCCCCCCOCCCOP(=O)(O)CCCC(=O)N(C)O	> 34
CC(=O)Oc1ccc(COP(=O)(CCCC(=O)N(C)O)OCc2ccc(OC(C)=O)cc2)cc1	32
CN(O)C(=O)CCCP(=O)(OCc1ccc(OC(=O)C(C)(C)C)cc1)OCc1ccc(OC(=O)C(C)(C)C)cc1	6.1
CCCCCCCCC(=O)Oc1ccc(COP(=O)(CCCC(=O)N(C)O)OCc2ccc(OC(=O)CCCCCCCC)cc2)cc1	42

Test system: not listed separately
Assay: Selectivity index, ratio of IC50 for human MRC5 cells to IC50 for Mycobacterium tuberculosis H37Ra ATCC 25177
Format: toxicity
Settings: read-out: Ratio IC50

Structure (SMILES)	selectivity ratio
CN(O)C(=O)CCCP(=O)(OCOC(=O)C(C)(C)C)OCOC(=O)C(C)(C)C	> 1.4
CN(O)C(=O)CCCP(=O)(OCc1ccc(OC(=O)c2ccccc2)cc1)OCc1ccc(OC(=O)c2ccccc2)cc1	1.5
CC(C)C(=O)Oc1ccc(COP(=O)(CCCC(=O)N(C)O)OCc2ccc(OC(=O)C(C)C)cc2)cc1	1.6
CC(=O)Oc1ccc(COP(=O)(CCCC(=O)N(C)O)OCc2ccc(OC(C)=O)cc2)cc1	0.8
CN(O)C(=O)CCCP(=O)(OCc1ccc(OC(=O)C(C)(C)C)cc1)OCc1ccc(OC(=O)C(C)(C)C)cc1	2.3
CCCCCCCCC(=O)Oc1ccc(COP(=O)(CCCC(=O)N(C)O)OCc2ccc(OC(=O)CCCCCCCC)cc2)cc1	7.6

Test system: not listed separately
Assay: Stability in human serum at 1 mM after 30 to 60 mins by UPLC method
Format: ADME, cell-free
Settings: 1000 µM

Structure (SMILES)	Stability
CN(O)C(=O)CCCP(=O)(OCOC(=O)C(C)(C)C)OCOC(=O)C(C)(C)C	Stable
CC(C)OC(=O)OCOP(=O)(CCCC(=O)N(C)O)OCOC(=O)OC(C)C	Stable
CN(O)C(=O)CCCP(=O)(OCc1ccc(OC(=O)c2ccccc2)cc1)OCc1ccc(OC(=O)c2ccccc2)cc1	Stable
CC(C)C(=O)Oc1ccc(COP(=O)(CCCC(=O)N(C)O)OCc2ccc(OC(=O)C(C)C)cc2)cc1	Stable
CC(=O)Oc1ccc(COP(=O)(CCCC(=O)N(C)O)OCc2ccc(OC(C)=O)cc2)cc1	Stable
CN(O)C(=O)CCCP(=O)(OCc1ccc(OC(=O)C(C)(C)C)cc1)OCc1ccc(OC(=O)C(C)(C)C)cc1	Stable
CCCCCCCCC(=O)Oc1ccc(COP(=O)(CCCC(=O)N(C)O)OCc2ccc(OC(=O)CCCCCCCC)cc2)cc1	Stable

Test system: not listed separately
Assay: Oral bioavailability in patient with malaria
Format: ADME, organism-based
Settings: human, in vivo

Structure (SMILES)	bioavailability
O=CN(O)CCCP(=O)([O-])O.[Na+] [FOSMIDOMYCIN SODIUM]	30%

Test system: not listed separately
Assay: Half life in patient with malaria
Format: ADME, organism-based
Settings: human, in vivo

Structure (SMILES)	half-life
O=CN(O)CCCP(=O)([O-])O.[Na+] [FOSMIDOMYCIN SODIUM]	2 h
